For orientation: pIC50 means the negative decadic logarithm of the IC50, by convention in mol/L. For orientation: DC50 means the concentration giving 50% degradation.

pIC50: −log10 of the molar value.

System in one data set: not given
Experiment: not given
Conditions: cn_pd bond; 13-membered ring; Pd2(dba)3/Xantphos/Cs2CO3; dioxane; 18.1 mM; 80.0 °C.
Take “12-((1R,4R)-4-(hydroxymethyl)cyclohexyl)-12H-5,10-dioxa-2-aza-1(5,6)-indazola-4(2,6)-pyridinacyclodecaphan-3-one”: the ring closure, isolated yield was 55%.

The data set is the same for the next values; noted with them: the molecule shown is the open-chain precursor; cn_pd bond; 14-membered ring; BrettPhos Pd G3/Cs2CO3; DMA; 100.0 mM; 90.0 °C.
For `NC(=O)c1cccc(OCCO[C@H]2CCN(c3cc4nn(C5CCC(CO)CC5)cc4cc3Br)C2)c1` (stereo partly drawn), the ring closure, isolated yield came out at 33%.

Staying with this data set, now noted: the molecule shown is the open-chain precursor; cn_pd bond; 14-membered ring; BrettPhos Pd G4/Cs2CO3; DMA; 9.4 mM; 80.0 °C.
The compound `NC(=O)c1cccc(OCCCCCOc2cc3nn(C4CCC(CO)CC4)cc3cc2Br)n1` (stereo not drawn) showed a ring closure, isolated yield of 39%.

The subject of a further data set is OCI-LY10 cells. The experiment in a line: CTG Cell Viability Assay - OCI-LY10. The class given is cell-based. Conditions: Homo sapiens, 96 h; OCI-LY10 cells, 4 days, CellTiter-Glo; read-out: CTG Cell Viability Assay - OCI-LY10: IC50. As for the experimental part:
Compound-mediated viability effect on OCI-LY10 or SUDHL-2 was quantitatively determined using the CellTiter-Glo® Luminescent Cell Viability Assay kit from Promega (Catalog number G7570) following manufacturer's recommended procedures. Briefly, OCI-LY10 or SUDHL-2 cells were seeded into 384 well plates (Grenier Bio-One, Catalog number 781080) with a density of 10,000 cells per well. Compounds were then added to the assay plate with final top concentration of 10 M and 1:3 dilution series with total of 9 doses. The final DMSO concentration was normalized to 0.2%. The assay plates were incubated at 37° C. for 4 days under 5% CO2. Then the assay plate was equilibrated at room temperature for 10 minutes. To determine cell viability, L CellTiter Glo reagent was added to each well and the assay plate was centrifuged at 1000 rpm for 30 second, incubated at room temperature for 10 min, and analyzed by detecting the luminescence using a multimode plate reader (EnVision 2105, PerkinElmer). The data was then analyzed by software Prism 7.0 from GraphPad and the dose response curves were fit using a three-parameter logistic equation to calculate IC50.
With `COc1cc2nn([C@H]3CC[C@H](CN(C)C4CCN(c5cccc6c5n(C)c(=O)n6C5CCC(=O)NC5=O)CC4)CC3)cc2cc1NC(=O)c1cccc(C(F)(F)F)n1` (stereo partly drawn) [I-247, N-[2-[4-[[[1-[1-(2,6-dioxo-3-piperidyl)-3-methyl-2-oxo-benzimidazol-4-yl]-4-piperidyl]-methyl-amino]methyl]cyclohexyl]-6-methoxy-indazol-5-yl]-6-(trifluoromethyl)pyridine-2-carboxamide], the pIC50 was below 6.00.

In a further data set the target is T1, IRAK4 (Homo sapiens, UniProt Q9NWZ3).
T1 construct: endogenous in cells; host or cells: OCI-LY10
T1 sequence (Q9NWZ3 1-460): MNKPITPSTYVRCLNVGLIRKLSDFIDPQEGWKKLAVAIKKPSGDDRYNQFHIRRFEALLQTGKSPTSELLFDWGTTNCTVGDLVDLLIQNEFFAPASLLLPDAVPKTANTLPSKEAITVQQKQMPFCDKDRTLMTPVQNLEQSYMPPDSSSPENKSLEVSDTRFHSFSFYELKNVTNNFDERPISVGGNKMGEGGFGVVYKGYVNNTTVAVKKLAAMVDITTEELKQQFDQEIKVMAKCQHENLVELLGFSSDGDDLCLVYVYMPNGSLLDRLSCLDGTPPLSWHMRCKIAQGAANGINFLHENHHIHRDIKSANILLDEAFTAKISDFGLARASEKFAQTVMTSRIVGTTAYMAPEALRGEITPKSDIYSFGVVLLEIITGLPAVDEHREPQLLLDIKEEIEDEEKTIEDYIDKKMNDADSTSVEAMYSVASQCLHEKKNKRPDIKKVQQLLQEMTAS
Nature of the data set: IRAK4 MSD Degradation in OCI-LY10. The class given is cell-based. The note with it: OCI-LY10 cells, 4 hrs incubation, read-out: IRAK4 degradation in OCI-LY10 at 4 hrs: DC50. The gist of the method: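 OCI-LY10 cells treated with 8-dose, 1:3 dilution series (top final 1 to 10 μM) for 4 to 24 h at 37 °C, 5% CO2. Lysate IRAK4 quantified by MSD sandwich immunoassay (mouse 2H9 capture, rabbit Y279 detection, SULFO-TAG anti-rabbit); DC50 from three-parameter logistic fit.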
On to `COc1cc2nn([C@H]3CC[C@H](CN(C)C4CCN(c5cccc6c5n(C)c(=O)n6C5CCC(=O)NC5=O)CC4)CC3)cc2cc1NC(=O)c1cccc(C(F)(F)F)n1` (stereo partly drawn) [I-247, N-[2-[4-[[[1-[1-(2,6-dioxo-3-piperidyl)-3-methyl-2-oxo-benzimidazol-4-yl]-4-piperidyl]-methyl-amino]methyl]cyclohexyl]-6-methoxy-indazol-5-yl]-6-(trifluoromethyl)pyridine-2-carboxamide], for which the DC50 is below 50 nM.
With `CN(CCO[C@H]1C[C@H](Cc2cccc3c2n(C)c(=O)n3C2CCC(=O)NC2=O)C1)C[C@H]1CC[C@H](n2cc3cc(NC(=O)c4cccc(C(F)(F)F)n4)c(C(F)F)cc3n2)CC1` (stereo partly drawn) [I-309], the DC50 was 50 to 100 nM.
In the case of `CN(C[C@H]1CC[C@H](n2cc3cc(NC(=O)c4cccc(C(F)(F)F)n4)c(C(C)(C)O)cc3n2)CC1)c1cccc2c1n(C)c(=O)n2C1CCC(=O)NC1=O` (stereo partly drawn) [I-310, N-[2-[4-[[[1-(2,6-dioxo-3-piperidyl)-3-methyl-2-oxo-benzimidazol-4-yl]-methyl-amino]methyl]cyclohexyl]-6-(1-hydroxy-1-methyl-ethyl)indazol-5-yl]-6-(trifluoromethyl)pyridine-2-carboxamide], the DC50 was in the range of 500 to 1000 nM.
As to `Cn1c(=O)n(C2CCC(=O)NC2=O)c2cccc(C3CCN(C[C@H]4CC[C@H](n5cc6cc(NC(=O)c7cnccn7)c(C(C)(C)O)cc6n5)CC4)CC3)c21` (stereo partly drawn) [I-320], the DC50 was below 50 nM.
For `CN(C[C@H]1CC[C@H](n2cc3cc(NC(=O)c4cccc(C5CC5)n4)c(C(C)(C)O)cc3n2)CC1)C1CCN(Cc2cccc3c2n(C)c(=O)n3C2CCC(=O)NC2=O)CC1` (stereo partly drawn) [I-322], the DC50 was below 50 nM.
On to `COc1cc2nn([C@H]3CC[C@H](CN4CCC(c5cccc6c5n(C)c(=O)n6C5CCC(=O)NC5=O)CC4)CC3)cc2cc1NC(=O)c1ccncn1` (stereo partly drawn) [I-324], for which the DC50 was below 50 nM.
`COc1cc2nn([C@H]3CC[C@H](CN4CCC(c5cccc6c5n(C)c(=O)n6C5CCC(=O)NC5=O)CC4)CC3)cc2cc1NC(=O)c1coc(C)n1` (stereo partly drawn) [I-325]: the DC50 is below 50 nM.
As to `COc1cc2nn([C@H]3CC[C@H](CN4CCC(c5cccc6c5n(C)c(=O)n6C5CCC(=O)NC5=O)CC4)CC3)cc2cc1NC(=O)c1cnccn1` (stereo partly drawn) [I-327], the DC50 is below 50 nM.
For `COc1cc2nn([C@H]3CC[C@H](CN4CCC(c5cccc6c5n(C)c(=O)n6C5CCC(=O)NC5=O)CC4)CC3)cc2cc1NC(=O)c1cccc(C)n1` (stereo partly drawn) [I-328], the 50% degradation concentration (DC50) is below 50 nM.
`COc1cc2nn([C@H]3CC[C@H](CN(C)C4CCN(c5cccc6c5n(C)c(=O)n6C5CCC(=O)NC5=O)CC4)CC3)cc2cc1NC(=O)c1ccccn1` (stereo partly drawn) [I-329]: the DC50 is below 50 nM.

Still in this data set, the particulars now being: OCI-LY10 cells, 24 hrs incubation, read-out: IRAK4 degradation in OCI-LY10 at 24 hrs: DC50.
Consider `CN(C[C@H]1CC[C@H](n2cc3cc(NC(=O)c4cccc(C(C)(C)F)n4)c(C(C)(C)O)cc3n2)CC1)[C@H]1CC[C@H](Nc2cccc3c2C(=O)N(C2CCC(=O)NC2=O)C3=O)CC1` (stereo partly drawn) [I-306], for which the DC50 is below 50 nM.
With `Cc1nc(C(=O)Nc2cc3cn([C@H]4CC[C@H](CN(C)[C@H]5CC[C@H](CNc6cccc7c6C(=O)N(C6CCC(=O)NC6=O)C7=O)CC5)CC4)nc3cc2C(C)(C)O)ccc1F` (stereo partly drawn) [I-308], the DC50 is 50 to 100 nM.
The same measure, in the same setting: the figure for `COc1cc2nn([C@H]3CC[C@H](CN4CCC(O[C@H]5CC[C@H](CNc6cccc7c6C(=O)N(C6CCC(=O)NC6=O)C7=O)CC5)CC4)CC3)cc2cc1NC(=O)c1cccc(C(C)(C)F)n1` (stereo partly drawn) [I-311] is 50 to 100 nM.
For the compound `CC(C)(O)c1cc2nn([C@H]3CC[C@H](CN4CCC(O[C@H]5C[C@H](Nc6cccc7c6C(=O)N(C6CCC(=O)NC6=O)C7=O)C5)CC4)CC3)cc2cc1NC(=O)c1cccc(C(F)(F)F)n1` (stereo partly drawn) [I-312], the DC50 was below 50 nM.
Consider `CC(C)(O)c1cc2nn([C@H]3CC[C@H](CN4CCC5(CC4)CC(Nc4cccc6c4C(=O)N(C4CCC(=O)NC4=O)C6=O)C5)CC3)cc2cc1NC(=O)c1cccc(C(F)(F)F)n1` (stereo partly drawn) [I-313], for which the DC50 is below 50 nM.
On to `O=C1CCC(N2C(=O)c3cccc(NCCC4CC5(CCN(C[C@H]6CC[C@H](c7nc8cc(N9CCC(CO)CC9)c(NC(=O)c9cccc(C(F)(F)F)n9)cc8o7)CC6)CC5)C4)c3C2=O)C(=O)N1` (stereo partly drawn) [I-314], for which the DC50 is 100 to 500 nM.
As to `COc1c(NC(=O)c2cccc(C(C)(C)F)n2)cc2cn([C@H]3CC[C@H](CN4CC5(CC(CCNc6cccc7c6C(=O)N(C6CCC(=O)NC6=O)C7=O)C5)C4)CC3)nc2c1C` (stereo partly drawn) [I-315], the DC50 was in the range of 50 to 100 nM.
Turning to `COc1cc2nn([C@H]3CC[C@H](CN4CCC5(CC4)CC(CNc4cccc6c4C(=O)N(C4CCC(=O)NC4=O)C6=O)C5)CC3)cc2cc1NC(=O)c1coc(-c2ccnc(C)c2)n1` (stereo partly drawn) [I-316], the DC50 is 50 to 100 nM.
With `COc1cc2nn([C@H]3CC[C@H](CN(C)[C@H]4CC[C@@]5(CC4)C[C@@H](CNc4cccc6c4C(=O)N(C4CCC(=O)NC4=O)C6=O)C5)CC3)cc2cc1NC(=O)c1cccc(C(F)(F)F)n1` (stereo partly drawn) [I-317], the DC50 lay in the range of 50 to 100 nM.
Regarding `COc1cc2nn([C@H]3CC[C@H](CN(C)[C@H]4CC[C@H](Nc5cccc6c5C(=O)N(C5CCC(=O)NC5=O)C6=O)CC4)CC3)cc2cc1NC(=O)c1cccc(S(F)(F)(F)(F)F)n1` (stereo partly drawn) [I-318], the DC50 was in the range of 50 to 100 nM.
With `C[C@@]1(CN2CCC3(CC2)CC(CCNc2cccc4c2C(=O)N(C2CCC(=O)NC2=O)C4=O)C3)Cc2cc(NC(=O)c3cccc(C(F)(F)F)n3)c(N3CCOCC3)cc2O1` (stereo partly drawn) [I-319, N-((2S)-2-((2-(2-((2-(2,6-dioxopiperidin-3-yl)-1,3-dioxoisoindolin-4-yl)amino)ethyl)-7-azaspiro[3.5]nonan-7-yl)methyl)-2-methyl-6-morpholino-2,3-dihydrobenzofuran-5-yl)-6-(trifluoromethyl)picolinamide], the DC50 was 500 to 1000 nM.
For `COc1cc2nc([C@H]3CC[C@H](CN4CCC5(CC4)CC(Nc4cccc6c4C(=O)N(C4CCC(=O)NC4=O)C6=O)C5)CC3)oc2cc1NC(=O)c1cnn2cccnc12` (stereo partly drawn) [I-321], the DC50 was below 50 nM.
For the compound `C[C@]1(CN2CCC3(CC2)CC(CCNc2cccc4c2C(=O)N(C2CCC(=O)NC2=O)C4=O)C3)Cc2cc(NC(=O)c3cccc(C(F)(F)F)n3)c(N3CCOCC3)cc2O1` (stereo partly drawn) [I-326, N-[(2R)-2-[[2-[2-[[2-(2,6-dioxo-3-piperidyl)-1,3-dioxo-isoindolin-4-yl]amino]ethyl]-7-azaspiro[3.5]nonan-7-yl]methyl]-2-methyl-6-morpholino-3H-benzofuran-5-yl]-6-(trifluoromethyl)pyridine-2-carboxamide], the DC50 lay in the range of 500 to 1000 nM.
For the compound `CN(CCCO[C@H]1C[C@H](Nc2cccc3c2C(=O)N(C2CCC(=O)NC2=O)C3=O)C1)C[C@]1(C)Cc2cc(NC(=O)c3cccc(C(F)(F)F)n3)c(N3CCOCC3)cc2O1` (stereo partly drawn) [I-330, N-[(2S)-2-[[3-[3-[[2-(2,6-dioxo-3-piperidyl)-1,3-dioxo-isoindolin-4-yl]amino]cyclobutoxy]propyl-methyl-amino]methyl]-2-methyl-6-morpholino-3H-benzofuran-5-yl]-6-(trifluoromethyl)pyridine-2-carboxamide], the DC50 lay in the range of 500 to 1000 nM.
For `COc1cc2c(cc1NC(=O)c1cccc(C(F)(F)F)n1)CN([C@H]1CC[C@H](CN3CC4(CC(CCNc5cccc6c5C(=O)N(C5CCC(=O)NC5=O)C6=O)C4)C3)CC1)C2=O` (stereo partly drawn) [I-331], the DC50 was in the range of 50 to 100 nM.
The same measure, in the same setting: the figure for `COc1cc2nn([C@H]3CC[C@H](CN4CC5(CC([C@H](C)CNc6cccc7c6C(=O)N(C6CCC(=O)NC6=O)C7=O)C5)C4)CC3)cc2cc1NC(=O)c1cccc(C(F)(F)F)n1` (stereo partly drawn) [I-332] is below 50 nM.

Source of the values: patent US12545659B2, “IRAK degraders and uses thereof” (Kymera Therapeutics, Inc., priority 2019, dated 2026).
